Measurements as given in US20250129073A1, “INHIBITOR OF RECEPTOR-INTERACTING PROTEIN KINASE 1, AND PREPARATION METHOD AND USE THEREFOR” (CHINA PHARMACEUTICAL UNIVERSITY, priority 2021, published 2025).

Molecular target: RIPK1 kinase (Homo sapiens (Human), UniProt Q13546)
Assay: RIPK1 kinase inhibitory assay (ADP-Glo)
Assay type: biochemical
Conditions: 10 μM compound; read-out: Inhibition rate of RIPK1 at 10 μM (%)
Protocol: Materials and Instruments: ADP-Glo kinase kit (purchased from Promega), RIPK1 GST-Th-Tag (purchased from Bps Bioscience), MBP substrate (purchased from Millipore), nunc 384-well plate, ATP fluorescence analyzer Paradigm detection platform (purchased from Beckman coulter)
The compounds were diluted in DMSO and configured into a solution with a final concentration of 10 mM; Dilute RIP1 kinase from 140 ng/μL to 20 ng/μL for use. Dilute 10 mM of ATP to 100 μM for later use; Dilute 5 mg/mL of MBP to 1 mg/mL for later use. Appropriate embodiments were added into the well of the 384-well plate, 10 μl […] ATP was evenly mixed with 1 μl 1 mg/mL MB P, the mixed solution was added to the well, and 2 μL […] RIP1 kinase was added to the hole, and then incubated at room temperature for 1 h. Subsequently, 5 μL ADP-Glo reagent was added to each well and incubated at room temperature for 40 min. Then, 10 μL ADP-Glo detection reagent was added to each well and incubated at room temperature for 30 min. Finally, the RLU value (relative light unit) of each well was measured by ATP fluorometer, and each sample was repeated twice. Inhibition rate=(RLU value of blank group−RLU value of drug administration group)/RLU value of blank group×100%.

RIPK1 kinase, sequence (Q13546 whole entry): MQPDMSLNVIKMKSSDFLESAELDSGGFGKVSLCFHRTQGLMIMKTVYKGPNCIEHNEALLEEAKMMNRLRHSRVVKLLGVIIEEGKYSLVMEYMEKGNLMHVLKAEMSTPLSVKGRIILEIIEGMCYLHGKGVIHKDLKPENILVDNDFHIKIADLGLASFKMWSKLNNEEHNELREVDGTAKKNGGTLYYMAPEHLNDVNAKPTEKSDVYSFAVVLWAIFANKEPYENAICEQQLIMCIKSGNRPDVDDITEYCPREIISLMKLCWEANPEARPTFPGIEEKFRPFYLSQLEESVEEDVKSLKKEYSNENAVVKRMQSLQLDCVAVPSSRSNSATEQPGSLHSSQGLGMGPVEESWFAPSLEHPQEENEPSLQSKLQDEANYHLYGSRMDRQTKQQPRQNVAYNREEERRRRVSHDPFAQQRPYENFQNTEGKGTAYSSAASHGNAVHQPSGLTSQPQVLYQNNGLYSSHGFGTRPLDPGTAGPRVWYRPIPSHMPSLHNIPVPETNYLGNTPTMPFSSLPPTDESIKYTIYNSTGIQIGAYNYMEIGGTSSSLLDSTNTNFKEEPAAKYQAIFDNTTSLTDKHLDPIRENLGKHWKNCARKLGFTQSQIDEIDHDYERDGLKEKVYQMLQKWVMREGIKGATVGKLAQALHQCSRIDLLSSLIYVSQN

| SMILES | inhibition at 10 µM [%] |
| --- | --- |
| CN1C(=O)N(Cc2ccccc2)C(=O)C12CCN(C(=O)c1ccccc1)CC2 [Compound 2, 8-benzoyl-3-benzyl-1-methyl-1,3,8-triazaspiro [4.5] decane-2,4-dione] | 8 |
| N#Cc1cc(N2CCC3(CCN(Cc4cc(F)ccc4F)C3=O)CC2)ncn1 [Compound 58, 6-(2-(2,5-difluorobenzyl)-1-oxo-2,8-diazaspiro[4.5]decan-8-yl)pyrimidine-4-carbonitrile] | > 50 |
| O=C(c1ccccc1)N1CCC2(C=NN(Cc3cccc(Cl)c3)C2=O)CC1 [Compound 70, 8-benzoyl-2-(3-chlorobenzyl)-2,3,8-triazaspiro[4.5]dec-3-en-1-one] | 44 |
| O=C1N(Cc2ccccc2)CCC12CCN(c1ncccn1)CC2 [Compound 36, 2-benzyl-8-(pyrimidin-2-yl)-2,8-diazaspiro[4.5]decan-1-one] | > 50 |
| O=C(c1ccccc1)N1CCC2(CC1)N=CN(Cc1ccccc1F)C2=O [Compound 60, 8-benzoyl-3-(2-fluorobenzyl)-1,3,8-triazaspiro[4.5]dec-1-en-4-one] | > 50 |
| CN1C(=O)N(Cc2ccccn2)C(=O)C12CCN(C(=O)c1ccccc1)CC2 [Compound 6, 8-benzoyl-1-methyl-3-(pyridin-2-ylmethyl)-1,3,8-triazaspiro [4.5]decane-2,4-dione] | 4 |
| O=C(c1ccccc1)N1CCC2(C=NN(Cc3cccc(F)c3)C2=O)CC1 [Compound 64, 8-benzoyl-2-(3-fluorobenzyl)-2,3,8-triazaspiro[4.5]dec-3-en-1-one] | > 50 |
| O=C(c1ccccc1)N1CCC2(CC1)CN(Cc1ccccc1)C2=O [Compound 73, 7-benzoyl-2-benzyl-2,7-diazaspiro[3.5]nonan-1-one] | 45 |
| Cn1cc(C(=O)N2CCC3(CC2)CCN(Cc2ccccc2)C3=O)c2ccccc21 [Compound 27, 2-benzyl-8-(1-methyl-1H-indole-3-carbonyl)-2,8-diazaspiro[4.5]decan-1-one] | 46 |
| N#Cc1ccc(CN2N=CC3(CCN(C(=O)c4ccccc4)CC3)C2=O)cc1 [Compound 69, 4-((8-benzoyl-1-oxo-2,3,8-triazaspiro[4.5]dec-3-en-2-yl)methyl) benzonitrile] | 9 |
| O=C1N(Cc2ccccc2)CCC12CCN(Cc1ccccc1)CC2 [Compound 19, 2,8-dibenzyl-2,8-diazaspiro[4.5]decan-1-one] | 16 |

The remaining lines, values ahead:

| inhibition at 10 µM [%] | SMILES |
| --- | --- |
| > 50 | O=C(c1ccccc1)N1CCC2(CC1)CCN(Cc1cc(Cl)ccc1F)C2=O [Compound 47, 8-benzoyl-2-(5-chloro-2-fluorobenzyl)-2,8-diazaspiro[4.5]decan-1-one] |
| > 50 | O=C(c1ccc2[nH]ccc2c1)N1CCC2(CC1)CCN(Cc1ccccc1)C2=O [Compound 24, 2-benzyl-8-(1H-indole-5-carbonyl)-2,8-diazaspiro[4.5]decan-1-one] |
| 45 | O=C(c1cccnc1)N1CCC2(CC1)CCN(Cc1ccccc1)C2=O [Compound 17, 2-benzyl-8-nicotinoyl-2,8-diazaspiro[4.5]decan-1-one] |
| 3 | Cn1ccc2cc(C(=O)N3CCC4(CC3)CCN(Cc3ccccc3)C4=O)ccc21 [Compound 28, 2-benzyl-8-(1-methyl-1H-indole-5-carbonyl)-2,8-diazaspiro[4.5]decan-1-one] |
| > 50 | O=C(c1cnco1)N1CCC2(CC1)CCN(Cc1ccccc1)C2=O [Compound 18, 2-benzyl-8-(oxazole-5-carbonyl)-2,8-diazaspiro[4.5]decan-1-one] |
| > 50 | O=C(c1ccccc1)N1CCC2(CC1)CCN(Cc1cccnc1)C2=O [Compound 13, 8-benzoyl-2-(pyridin-3-ylmethyl)-2,8-diazaspiro[4.5]decan-1-one] |
| > 50 | COc1cccc(C(=O)N2CCC3(CC2)CCN(Cc2cc(F)ccc2F)C3=O)c1 [Compound 77, 2-(2,5-difluorobenzyl)-8-(3-methoxybenzoyl)-2,8-diazaspiro[4.5]decan-1-one] |
